Assays:
DPP-IV = target: T1, DPP-IV (Homo sapiens, UniProt P27487); assay: DPP-IV assay with Caco-2 cell extract as DPP-IV source; assay type: biochemical; conditions: extract of human colon carcinoma cell line Caco-2; AFC substrate 100 μM; 60 minutes at ambient temperature; read-out: DPP-IV inhibition IC50
T1 construct: an extract of human colon carcinoma cell line Caco-2 is used as the DPP-IV source; endogenous in cells; host or cells: Caco-2 (human colon carcinoma), differentiated to induce DPP-IV expression
Method: The differentiation of the cells in order to induce the DPP-IV expression was carried out as described by Reiher et al., “Increased Expression of Intestinal Cell Line Caco-2”, Proc. Natl. Acad. Sci. Vol. 90, pages 5757-5761 (1993). The cell extract was obtained from cells solubilized in a buffer (10 mM Tris HCl, 0.15 M NaCl, 0.04 t.i.u. aprotinin, 0.5% Nonidet P-40, pH 8.0) by centrifuging at 35,000 g for 30 minutes at 4° C. (to remove cell debris).
The DPP-IV assay was carried out as follows:
50 μL substrate solution (AFC; AFC is amido-4-trifluoromethylcoumarin), final concentration 100 μM, were placed in black microtitre plates. 20 μL of assay buffer (final concentrations 50 mM Tris HCl pH 7.8, 50 mM NaCl, 1% DMSO) was pipetted in. The reaction was started by adding 30 μL of solubilized Caco-2 protein (final concentration 0.14 μg of protein per well). The test substances to be investigated were typically added prediluted in 20 μL, and the volume of assay buffer was then reduced accordingly. The reaction was carried out at ambient temperature, incubating for 60 minutes. Then the fluorescence was measured in a Victor 1420 Multilabel Counter, the excitation wavelength being 405 nm and the emission wavelength being 535 nm. Blank readings (corresponding to 0% activity) were obtained in mixtures without any Caco-2 protein (volume replaced by assay buffer), control values (corresponding to 100% activity) were obtained in mixtures with no substance added. […]

[1] = Tolerability after oral administration to rats (behavior); assay type: in vivo; conditions: 10 mg/kg

T1 sequence (P27487 whole entry): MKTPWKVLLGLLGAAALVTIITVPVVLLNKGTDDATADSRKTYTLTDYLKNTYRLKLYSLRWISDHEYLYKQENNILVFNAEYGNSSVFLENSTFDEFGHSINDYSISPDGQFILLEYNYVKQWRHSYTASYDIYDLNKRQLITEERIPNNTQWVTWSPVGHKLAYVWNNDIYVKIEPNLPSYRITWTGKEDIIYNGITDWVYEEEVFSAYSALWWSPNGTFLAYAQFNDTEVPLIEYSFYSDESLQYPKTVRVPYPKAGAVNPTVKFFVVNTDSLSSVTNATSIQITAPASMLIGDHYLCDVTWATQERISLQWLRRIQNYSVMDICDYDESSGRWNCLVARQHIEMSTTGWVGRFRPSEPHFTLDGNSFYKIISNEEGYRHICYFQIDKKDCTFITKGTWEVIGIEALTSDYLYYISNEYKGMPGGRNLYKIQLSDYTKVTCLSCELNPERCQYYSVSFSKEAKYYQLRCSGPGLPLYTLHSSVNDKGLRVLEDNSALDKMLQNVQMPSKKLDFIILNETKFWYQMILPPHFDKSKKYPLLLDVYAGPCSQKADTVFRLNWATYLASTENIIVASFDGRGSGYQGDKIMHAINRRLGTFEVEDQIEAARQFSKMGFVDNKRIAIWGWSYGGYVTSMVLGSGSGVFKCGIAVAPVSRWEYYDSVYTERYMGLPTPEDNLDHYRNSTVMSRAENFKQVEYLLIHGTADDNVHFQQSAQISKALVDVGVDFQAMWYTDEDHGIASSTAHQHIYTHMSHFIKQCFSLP

Row | SMILES | IC50 (DPP-IV) [nM] | changes in the animals' behavior [1]
1 | CC(C)=CCn1c(N2CCCC(N)C2)nc2c1c(=O)n(CC(=O)c1ccccc1NC(=O)C1CC1)c(=O)n2C (stereo not drawn) [1 (1), 1-(2-{2-[(cyclopropylcarbonyl)amino]phenyl}-2-oxoethyl)-3-methyl-7-(3-methyl-2-buten-1-yl)-8-(3-aminopiperidin-1-yl)xanthine] | 11 | –
2 | C/C=C/Cn1c(N2CCC[C@@H](N)C2)nc2c1c(=O)n(CC(=O)c1ccccc1NC(=O)C1CC1)c(=O)n2C [1 (3), 1-(2-{2-[(cyclopropylcarbonyl)amino]phenyl}-2-oxoethyl)-3-methyl-7-((E)-2-buten-1-yl)-8-((R)-3-aminopiperidin-1-yl)xanthine] | 4 | –
3 | CC#CCn1c(N2CCC[C@H](N)C2)nc2c1c(=O)n(CC(=O)c1ccccc1NC(=O)C1CC1)c(=O)n2C [1 (6), 1-(2-{2-[(cyclopropylcarbonyl)amino]phenyl}-2-oxoethyl)-3-methyl-7-(2-butyn-1-yl)-8-((S)-3-aminopiperidin-1-yl)xanthine] | 5 | –
4 | C/C=C/Cn1c(N2CCCC(N)C2)nc2c1c(=O)n(CC(=O)c1ccccc1NC(=O)c1ccccn1)c(=O)n2C (stereo not drawn) [1 (7), 1-[2-(2-{[(pyridin-2-yl)carbonyl]amino}phenyl)-2-oxoethyl]-3-methyl-7-((E)-2-buten-1-yl)-8-(3-aminopiperidin-1-yl)xanthine] | 8 | –
5 | CC(C)=CCn1c(N2CCCC(N)C2)nc2c1c(=O)n(CC(=O)c1ccccc1NC=O)c(=O)n2C (stereo not drawn) [Example 1, 1-[2-(2-formylaminophenyl)-2-oxoethyl]-3-methyl-7-(3-methyl-2-buten-1-yl)-8-(3-aminopiperidin-1-yl)xanthine] | 5 | –

These reach a lower IC50 (DPP-IV). Values come first.

Row | IC50 (DPP-IV) [nM] | SMILES | changes in the animals' behavior [1]
6 | 3 | CC#CCn1c(N2CCCC(N)C2)nc2c1c(=O)n(CC(=O)c1ccccc1NC=O)c(=O)n2C (stereo not drawn) [1 (2), 1-[2-(2-formylaminophenyl)-2-oxoethyl]-3-methyl-7-(2-butyn-1-yl)-8-(3-aminopiperidin-1-yl)xanthine] | –
7 | 3 | C/C=C/Cn1c(N2CCC[C@H](N)C2)nc2c1c(=O)n(CC(=O)c1ccccc1NC(=O)C1CC1)c(=O)n2C [1 (4), 1-(2-{2-[(cyclopropylcarbonyl)amino]phenyl}-2-oxoethyl)-3-methyl-7-((E)-2-buten-1-yl)-8-((S)-3-aminopiperidin-1-yl)xanthine] | –
8 | 3 | CC#CCn1c(N2CCC[C@@H](N)C2)nc2c1c(=O)n(CC(=O)c1ccccc1NC(=O)C1CC1)c(=O)n2C [Example 1 (5), 1-(2-{2-[(cyclopropylcarbonyl)amino]phenyl}-2-oxoethyl)-3-methyl-7-(2-butyn-1-yl)-8-((R)-3-aminopiperidin-1-yl)xanthine] | no changes in the animals' behavior could be detected
